Here are results for twelve compounds from patent US12599616B2, “Subtituted sulfonylurea and sulfoximineurea derivatives” (Zydus Lifesciences Limited, priority 2020, dated 2026).

Structures are written as SMILES.

As a reminder, the IC50 is the point on the concentration scale where inhibition reaches its midpoint.

This assay relates to IL-1β. Kind of assay: In vitro IL-1β inhibition in PMA-differentiated, LPS-primed, ATP-stimulated THP1 cells. The assay is classed as cell-based. Conditions: Homo sapiens, THP-1; THP1 monocytes differentiated with PMA, primed with 500 ng/ml LPS 4 h, compound 30 min, 5 mM ATP 1 hr; IL-1b in supernatant; read-out: invitro IL-1β inhibitory activity (IC50). The protocol: THP1 monocytes were differentiated with PMA (100 ng/ml) and incubated at 37° C. for 20 hrs in presence of 5% CO2. 2×10^5 differentiated cells were plated per well of 96 well tissue culture plates. The cells were primed using 500 ng/ml Lipopolysaccharide and incubating for 4 h under the same condition. The cells were then treated with various concentrations of the compounds for 30 min followed by treatment with 5 mM ATP for 1 hr. The supernatants were collected and analyzed by IL-1b (Mabtech Cat #3415-1H-20) or TNF-a (Mabtech; Cat #3510-1H-20) detection kit. The data were analyzed using GraphPad Prism V7.0. Dose Response Curve (DRC) was constructed to determine the IC50 value by fitting percentage cell survival data to the GraphPad Prism using nonlinear regression analysis.
Regarding `CC(C)NC/C=C/S(=O)(=O)NC(=O)Nc1c2c(cc3c1CCC3)CCC2` [Example 1, (E)-N-((1,2,3,5,6,7-hexahydro-s-indacen-4-yl)carbamoyl)-3-(isopropylamino)prop-1-ene-1-sulfonamide], the IC50 was found to be 43 nM. As for `CC(C)N(C)C/C=C/S(=O)(=O)NC(=O)Nc1c2c(cc3c1CCC3)CCC2` [Example 5, (E)-N-((1,2,3,5,6,7-hexahydro-s-indacen-4-yl)carbamoyl)-3-(isopropyl(methyl)amino)prop-1-ene-1-sulfonamide], the figure is 20 nM; as for `CN(C)C(C)(C)/C=C/S(=O)(=O)NC(=O)Nc1c2c(cc3c1CCC3)CCC2` [Example 6, (E)-3-(dimethylamino)-N-((1,2,3,5,6,7-hexahydro-s-indacen-4-yl)carbamoyl)-3-methylbut-1-ene-1-sulfonamide], 5.6 nM; as for `O=C(Nc1c2c(cc3c1CCC3)CCC2)NS(=O)(=O)/C=C/CN1CCCC1` [Example 18, (E)-N-((1,2,3,5,6,7-hexahydro-s-indacen-4-yl)carbamoyl)-3-(pyrrolidin-1-yl)prop-1-ene-1-sulfonamide], 6.6 nM. Under `CCN(C)C(C)(C)/C=C/S(=O)(=O)NC(=O)Nc1c2c(cc3c1CCC3)CCC2` [Example 20, (E)-3-(ethyl(methyl)amino)-N-((1,2,3,5,6,7-hexahydro-s-indacen-4-yl)carbamoyl)-3-methylbut-1-ene-1-sulfonamide] stands 9.9 nM; under `CN(C1CCC1)C(C)(C)/C=C/S(=O)(=O)NC(=O)Nc1c2c(cc3c1CCC3)CCC2` [Example 21, (E)-3-(cyclobutyl(methyl)amino)-N-((1,2,3,5,6,7-hexahydro-s-indacen-4-yl)carbamoyl)-3-methylbut-1-ene-1-sulfonamide], 6 nM; under `CC(C)N(C)C(C)(C)/C=C/S(=O)(=O)NC(=O)Nc1c2c(cc3c1CCC3)CCC2` [Example 24, (E)-N-((1,2,3,5,6,7-hexahydro-s-indacen-4-yl)carbamoyl)-3-(isopropyl(methyl)amino)-3-methylbut-1-ene-1-sulfonamide], 7.5 nM. As for `CC(C)CN(C)C(C)(C)/C=C/S(=O)(=O)NC(=O)Nc1c2c(cc3c1CCC3)CCC2` [Example 35, (E)-N-((1,2,3,5,6,7-hexahydro-s-indacen-4-yl)carbamoyl)-3-(isobutyl(methyl)amino)-3-methylbut-1-ene-1-sulfonamide], the figure is 11 nM; as for `CN(C)C/C=C/S(=O)(=O)NC(=O)Nc1c2c(cc3c1CCC3)CC=C2` [Example 36, (E)-3-(dimethylamino)-N-((1,2,3,7-tetrahydro-s-indacen-4-yl)carbamoyl)prop-1-ene-1-sulfonamide], 9.6 nM.

In the case of `CC(C)(/C=C/S(=O)(=O)NC(=O)Nc1c2c(cc3c1CCC3)CCC2)N1CCCC1` [Example 42, (E)-N-((1,2,3,5,6,7-hexahydro-s-indacen-4-yl)carbamoyl)-3-methyl-3-(pyrrolidin-1-yl)but-1-ene-1-sulfonamide], the IC50 was 12.6 nM. Take `CC(C)(/C=C/S(=O)(=NC#N)NC(=O)Nc1c2c(cc3c1CCC3)CCC2)NC(=O)OC(C)(C)C` (stereo not drawn) [Example 47, tert-butyl (E)-(4-(N′-cyano-N-((1,2,3,5,6,7-hexahydro-s-indacen-4-yl)carbamoyl)sulfamidimidoyl)-2-methylbut-3-en-2-yl)carbamate]: the IC50 came to 3.8 nM. In the case of `CN(C)C(C)(C)/C=C/S(=O)(=NC#N)NC(=O)Nc1c2c(cc3c1CCC3)CCC2` (stereo not drawn) [Example 49, (E)-N′-cyano-3-(dimethylamino)-N-((1,2,3,5,6,7-hexahydro-s-indacen-4-yl)carbamoyl)-3-methylbut-1-ene-1-sulfonimidamide], the IC50 was 6.5 nM.
